Read-outs that look alike come from different tables or passages of the source.
Key:
[1] = biological target: GABAA receptor; details: cited from earlier work; for IC50: read-out: reported IC50
[2] = tested on: human α1β2γ2L GABAA receptor subunits in L(tk−) cells; details: L(tk−) cells stably transfected with human α1β2γ2L; cited from earlier work
[3] = biological target: T1, α1, β2, and γ2s subunits of the rat GABAA receptors (HEK-GABA cells) (Rattus norvegicus, UniProt P18508+P62813+P63138); experiment: Whole-cell electrophysiology recording on HEK-GABA cells; assay type: cell-based; details: electrophysiology vs QP-DHM
[4] = biological target: T1, α1, β2, and γ2s subunits of the rat GABAA receptors (HEK-GABA cells); experiment: QP-DHM blind agonist screen; assay type: cell-based
[5] = biological target: T1, α1, β2, and γ2s subunits of the rat GABAA receptors (HEK-GABA cells); experiment: QP-DHM modulator mode; assay type: cell-based; details: maximum concentration of compound, with GABA at EC30, Fig. 3D
[6] = tested on: α1β2γ2 expressed in Xenopus oocytes; details: read-out: EC50 as modulator; cited from earlier work
[7] = tested on: Wild-type HEK cells; details: patch clamp; cited from earlier work
[8] = biological target: GABAA receptor (α1, β2, and γ2s subunits, HEK-GABA) (Rattus norvegicus, UniProt P18508+P62813+P63138); assay type: cell-based
[9] = Table 1, dose-response curves of validated hits

T1 sequence (P62813 28-455): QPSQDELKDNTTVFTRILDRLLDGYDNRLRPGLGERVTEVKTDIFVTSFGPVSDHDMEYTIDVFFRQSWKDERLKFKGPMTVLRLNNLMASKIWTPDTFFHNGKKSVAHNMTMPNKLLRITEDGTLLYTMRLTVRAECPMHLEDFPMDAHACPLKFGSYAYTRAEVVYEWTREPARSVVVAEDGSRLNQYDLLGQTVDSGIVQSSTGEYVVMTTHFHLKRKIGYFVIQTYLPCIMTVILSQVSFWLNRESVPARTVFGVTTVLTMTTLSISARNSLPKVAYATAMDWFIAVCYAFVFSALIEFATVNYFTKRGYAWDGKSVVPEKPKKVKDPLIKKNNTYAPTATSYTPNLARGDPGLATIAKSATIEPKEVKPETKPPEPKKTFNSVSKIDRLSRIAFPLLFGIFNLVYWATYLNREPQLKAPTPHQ
T1 sequence (P63138 25-474 limits assumed): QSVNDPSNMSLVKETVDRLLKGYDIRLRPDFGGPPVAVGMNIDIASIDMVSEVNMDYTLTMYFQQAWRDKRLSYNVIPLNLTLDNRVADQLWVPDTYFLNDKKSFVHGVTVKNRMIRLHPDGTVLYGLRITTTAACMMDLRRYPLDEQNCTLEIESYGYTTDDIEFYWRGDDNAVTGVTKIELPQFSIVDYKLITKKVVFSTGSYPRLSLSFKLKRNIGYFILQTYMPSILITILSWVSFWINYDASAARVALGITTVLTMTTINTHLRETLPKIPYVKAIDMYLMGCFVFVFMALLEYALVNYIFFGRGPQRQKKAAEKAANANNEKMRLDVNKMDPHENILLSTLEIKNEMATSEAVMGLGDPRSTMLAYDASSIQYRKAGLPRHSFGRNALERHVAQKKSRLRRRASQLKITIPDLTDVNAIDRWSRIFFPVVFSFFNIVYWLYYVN
T1 sequence (P18508 39-466): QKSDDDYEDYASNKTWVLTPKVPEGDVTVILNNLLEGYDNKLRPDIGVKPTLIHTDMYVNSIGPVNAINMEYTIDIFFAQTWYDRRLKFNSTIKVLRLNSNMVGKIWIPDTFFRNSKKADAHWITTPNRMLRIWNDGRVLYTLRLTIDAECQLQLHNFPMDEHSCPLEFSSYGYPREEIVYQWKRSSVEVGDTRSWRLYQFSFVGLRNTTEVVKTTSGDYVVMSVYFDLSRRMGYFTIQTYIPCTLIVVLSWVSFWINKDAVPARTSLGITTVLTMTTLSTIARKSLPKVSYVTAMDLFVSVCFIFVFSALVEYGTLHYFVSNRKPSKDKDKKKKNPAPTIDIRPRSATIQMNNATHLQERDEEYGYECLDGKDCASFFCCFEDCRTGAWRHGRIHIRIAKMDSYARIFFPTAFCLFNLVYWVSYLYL
Chain of GABAA receptor (α1, β2, and γ2s subunits, HEK-GABA) (P62813 28-455): as the sequence (P62813 28-455) above
Chain of GABAA receptor (α1, β2, and γ2s subunits, HEK-GABA) (P63138 25-474 limits assumed): as the sequence (P63138 25-474 limits assumed) above
Chain of GABAA receptor (α1, β2, and γ2s subunits, HEK-GABA) (P18508 39-466): as the sequence (P18508 39-466) above

In the case of Picrotoxin, the IC50 ([1]; in the presence of 10 μM GABA) is listed as 3100 nM.

For COc1cc2c(c(OC)c1OC)-c1ccc(OC)c(=O)cc1[C@@H](NC(C)=O)CC2 [Colchicine], the “effect on GABA currents” value [2] is listed as “significantly inhibits GABA currents”.

For Ivermectin, the “EC50 with electrophysiology relative to QP-DHM (fold higher)” value [3] is given as ~ 10 × and the “rise time relative to GABA (times longer)” value [1] is given as “about 500 times”.

With CC(=O)OC1CCC2(C)C(CCC3C4CCC(C(C)=O)C4(C)CC(=O)C32)C1 (stereo not drawn) the “result in blind agonist screen” value ([4]; natural products collection) was “negative”.

In the case of CCN(C(C)=O)c1cccc(-c2ccnc3c(C#N)cnn23)c1 [Zaleplon], the “effect of GABA increased to % of the maximum (GABA at 10 µM)” value [5] is listed as 41% and the EC50 [6] is listed as 170 nM.

For COc1ccc(-c2ccc(=N)n(CCCC(=O)O)n2)cc1 [Gabazine], the IC50 ([1]; in the presence of 3 μM GABA) is given as ~200 nM.

For NCCCC(=O)O [GABA], the “electrophysiological response of wild-type HEK cells” value [7] is listed as “no electrophysiological response”.

For NCc1cc(=O)[nH]o1 [Muscimol], the EC50 [4] was 200 nM, the “Amplitude (%)” value [4, 9] was 100% and the “Hill Coefficient” value [4, 9] was 1.9.

In the case of CC[C@H](C)[C@H]1O[C@]2(C=C[C@@H]1C)C[C@@H]1C[C@@H](C/C=C(\C)[C@@H](O[C@H]3C[C@H](OC)[C@@H](O[C@H]4C[C@H](OC)[C@@H](O)[C@H](C)O4)[C@H](C)O3)[C@@H](C)/C=C/C=C3\CO[C@@H]4[C@H](O)C(C)=C[C@@H](C(=O)O1)[C@]34O)O2 [Avermectin B1a], the “EC50 with electrophysiology relative to QP-DHM (fold higher)” value [3] is reported as ~ 10 ×, the EC50 [4] is reported as 6900 nM and the “Amplitude (%)” value [4, 9] is reported as 94%. For the same compound, the “Hill Coefficient” value [4, 9] was 6.3, the “Amplitude (%)” value ([4]; Table 2, avermectin family) was 94% and the “Hill Coefficient” value ([4]; Table 2, avermectin family) was 6.3.

With CC[C@]1(O)C[C@@H]2CN(CCc3c([nH]c4ccccc34)[C@@](C(=O)OC)(c3cc4c(cc3OC)N(C)[C@H]3[C@@](O)(C(N)=O)[C@H](O)[C@]5(CC)C=CCN6CC[C@]43[C@@H]65)C2)C1 [STOCK1N-75293, Vindesine] the “outcome of hits validation (activity and specificity for the GABAA receptor)” value [8] was “marginal effect”.

In the case of CN1CCc2cc3c(cc2[C@H]1[C@@H]1OC(=O)c2c1ccc1c2OCO1)OCO3 [(+)-Bicuculline], the IC50 ([1]; in the presence of 3 μM GABA) is listed as 900 nM and the IC50 ([1]; in the presence of 10 μM GABA) is listed as 530 nM.

— publication PMC7243081 (Slas Discovery, 2019)
